PubChem BioAssay AID1963862 (Molecular Pharmacology Branch, DTP, NCI, 2024)

Tested on: KRAS patient-derived spheroids with HUVEC/MSC, viability
Assay: Anticancer human tumor 941728-121-R-J1-PDC patient-derived lung adenocarcinoma cell line growth inhibition [KRAS2]
Settings: for IC50: curve of first compound; for viability, T/C: stronger effect = lower value
Description: Multicellular complex tumor spheroid response to RAS pathway inhibitors in combination with a targeted agents in patient-derived cell lines with oncogenic KRAS variants from multiple cancer types
A high-throughput screen of multi-cell type tumor spheroids was designed to identify active combinations of targeted small molecules and KRAS pathway inhibitors. Complex spheroids include a stromal component modeled by human endothelial cells (HUVEC) and fibroblasts modeled by human mesenchymal stem cells (MSCs). The concentration ranges selected for each drug and investigational agent were based upon clinically achievable concentrations if the clinical Cmax of the agent was known.
Compounds. The drugs and investigational agents: BI-3406 (NSC825286), BAY-293 (NSC824723), batoprotafib (TNO155; NSC825523), sotorasib (AMG 510; NSC818433), MRTX1257 (NSC819558), elimusertib (BAY 1895344; NSC800525), molibresib (GSK525762; NSC774829), temuterkib (LY3214996; NSC803410), venetoclax (NSC766270), alisertib (NSC759677), olaparib (NSC753686), talazoparib (NSC767125), erdafitinib (NSC781556), ipatasertib (NSC767898), cabozantinib (NSC761068), nintedanib (NSC756659), abemaciclib (NSC768073), docetaxel (NSC628503), trametinib (NSC758246), and sapanisertib (NSC764658) were obtained from the National Cancer Institute (NCI) Developmental Therapeutics Program Chemical Repository. The FDA-approved anticancer drug set is available from the Developmental Therapeutics Program. […] The stock solutions were prepared in dimethyl sulfoxide (DMSO, Sigma-Aldrich, St. Louis, MO, cat. D2650) at 800-fold the tested concentration and stored at -70 degrees C prior to their use. All drugs and investigational agents were tested over a range starting from a high concentration at or near the clinical Cmax and decreasing in half-log increments. If the clinical Cmax for an agent had not been determined, the highest concentration tested was 10 microM.
Cell Culture. All cells were maintained in an incubator at 37 degrees C and 5% CO2 with 95% humidity. The PDC lines were cultured according to standard operating procedures established by the NCI PDMR (https://pdmr.cancer.gov/sops/default.htm). Briefly, all PDCs were thawed and cultured in Matrigel-coated flasks prepared with a working solution of 1X Ham's F-12 nutrient mix, without supplementation (Invitrogen, Waltham, MA, cat. 11765054), 100 U/mL penicillin-streptomycin (Invitrogen, cat. 15140122), and 2.5% Matrigel (Corning Inc., Corning, NY, cat. 354248) for the first three passages. All PDCs were cultured in complete DMEM/F-12 media containing advanced DMEM/F-12 (Invitrogen, cat. 12634028), 4.9% defined fetal bovine serum, heat inactivated (HyClone Laboratories Inc., Logan, UT, cat. SH30070.03HI), 389 ng/mL hydrocortisone (Sigma-Aldrich, cat. H4001), 9.7 ng/mL human EGF recombinant protein (Invitrogen, cat. PHG0313), 23.4 microg/mL adenine (Sigma-Aldrich, cat. A2786), 97.3 U/mL penicillin-streptomycin (Invitrogen, cat. 15140122), 1.9 mM L-glutamine (Invitrogen, cat. 25030081), and 9.7 microM Y-27632 dihydrochloride (Tocris Bioscience, Bristol, United Kingdom, cat. 1254). The PDCs were cultured in complete DMEM/F12 media without 9.7 microM Y-27632 dihydrochloride for at least two passages prior to the screen. The established cell line HOP-62 was cultured in RPMI 1640 medium, HEPES (Invitrogen, cat. 22400105) with 10% defined fetal bovine serum (HyClone Laboratories Inc., cat. SH30070.03) and 2 mM L-glutamine (Invitrogen, cat. 25030081). The pooled donor HUVEC were cultured in endothelial cell growth medium 2 (PromoCell, Heidelberg, Germany, cat. C-22011) and the hMSC were cultured in mesenchymal stem cell growth medium 2 (PromoCell, cat. C-28009). For all experiments, HUVEC and hMSC were used at passages </=5, while the malignant cell lines were used at passages </=15. […]

[1] = second compound 0.1 µM, first compound 0.0316 µM
[2] = second compound 0.1 µM, first compound 0.1 µM
[3] = second compound 0.316 µM, first compound 0.0316 µM
[4] = second compound 0.316 µM, first compound 0.1 µM
[5] = second compound 1 µM, first compound 0.0316 µM
[6] = second compound 1 µM, first compound 0.1 µM
[7] = second compound 3.16 µM, first compound 0.0316 µM
[8] = second compound 3.16 µM, first compound 0.1 µM
[9] = second compound 10 µM, first compound 0.0316 µM
[10] = second compound 10 µM, first compound 0.1 µM
[11] = second compound 0.1 µM, first compound 0.316 µM
[12] = second compound 0.1 µM, first compound 1 µM
[13] = second compound 0.1 µM, first compound 3.16 µM
[14] = second compound 0.1 µM, first compound 10 µM
[15] = second compound 0.316 µM, first compound 0.316 µM
[16] = second compound 0.316 µM, first compound 1 µM
[17] = second compound 0.316 µM, first compound 3.16 µM
[18] = second compound 0.316 µM, first compound 10 µM
[19] = second compound 1 µM, first compound 0.316 µM
[20] = second compound 1 µM, first compound 1 µM
[21] = second compound 1 µM, first compound 3.16 µM
[22] = second compound 1 µM, first compound 10 µM
[23] = second compound 3.16 µM, first compound 0.316 µM
[24] = second compound 3.16 µM, first compound 1 µM
[25] = second compound 3.16 µM, first compound 3.16 µM
[26] = second compound 3.16 µM, first compound 10 µM
[27] = second compound 10 µM, first compound 0.316 µM
[28] = second compound 10 µM, first compound 1 µM
[29] = second compound 10 µM, first compound 3.16 µM
[30] = second compound 10 µM, first compound 10 µM
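Further: spheroids exposed to agents for seven days before readout.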

Compound | IC50 (second compound 0.1 µM) [nM] | IC50 (second compound 0.316 µM) [nM] | IC50 (second compound 1 µM) [nM] | IC50 (second compound 3.16 µM) [nM] | IC50 (second compound 10 µM) [nM] | viability, T/C [1] [%] | viability, T/C [2] [%] | viability, T/C [3] [%] | viability, T/C [4] [%] | viability, T/C [5] [%] | viability, T/C [6] [%] | viability, T/C [7] [%] | viability, T/C [8] [%] | viability, T/C [9] [%] | viability, T/C [10] [%] | viability, T/C [11] [%] | viability, T/C [12] [%] | viability, T/C [13] [%] | viability, T/C [14] [%] | viability, T/C [15] [%] | other results
CN(C)C/C=C/C(=O)Nc1cc2c(Nc3ccc(F)c(Cl)c3)ncnc2cc1O[C@H]1CCOC1 + C=CC(=O)N1CCN(c2nc(=O)n(-c3c(C)ccnc3C(C)C)c3nc(-c4c(O)cccc4F)c(F)cc23)C(C)C1 | < 0.316 | < 0.316 | < 0.316 | < 0.316 | < 0.316 | 15.9 | 14.3 | 16.7 | 16.4 | 16.5 | 15.9 | 18.9 | 17.3 | 20.7 | 19 |  |  |  |  |  | viability, T/C (second compound 0.1 µM, first compound 0.000316 µM): 18.1%; viability, T/C (second compound 0.1 µM, first compound 0.001 µM): 17.1%; viability, T/C (second compound 0.1 µM, first compound 0.00316 µM): 16.2%; viability, T/C (second compound 0.1 µM, first compound 0.01 µM): 15.5%; viability, T/C (second compound 0.316 µM, first compound 0.000316 µM): 17%; viability, T/C (second compound 0.316 µM, first compound 0.001 µM): 17.6%; viability, T/C (second compound 0.316 µM, first compound 0.00316 µM): 15.6%; viability, T/C (second compound 0.316 µM, first compound 0.01 µM): 15.3%; viability, T/C (second compound 1 µM, first compound 0.000316 µM): 20.6%; viability, T/C (second compound 1 µM, first compound 0.001 µM): 19.9%; viability, T/C (second compound 1 µM, first compound 0.00316 µM): 18.1%; viability, T/C (second compound 1 µM, first compound 0.01 µM): 15.7%; viability, T/C (second compound 3.16 µM, first compound 0.000316 µM): 21.5%; viability, T/C (second compound 3.16 µM, first compound 0.001 µM): 20.9%; viability, T/C (second compound 3.16 µM, first compound 0.00316 µM): 19.4%; viability, T/C (second compound 3.16 µM, first compound 0.01 µM): 17.9%; viability, T/C (second compound 10 µM, first compound 0.000316 µM): 26.3%; viability, T/C (second compound 10 µM, first compound 0.001 µM): 22.5%; viability, T/C (second compound 10 µM, first compound 0.00316 µM): 23.6%; viability, T/C (second compound 10 µM, first compound 0.01 µM): 17.7%
COC(=O)c1ccc2c(C(=Nc3ccc(N(C)C(=O)CN4CCN(C)CC4)cc3)c3ccccc3)c(O)[nH]c2c1 + C=CC(=O)N1CCN(c2nc(=O)n(-c3c(C)ccnc3C(C)C)c3nc(-c4c(O)cccc4F)c(F)cc23)C(C)C1 | < 31.6 | < 31.6 | < 31.6 | < 31.6 | < 31.6 | 24.5 | 19.7 | 22.8 | 20.1 | 26.3 | 21.2 | 27.1 | 25.1 | 41.2 | 30.2 | 16.4 | 12.7 | 10.2 | 7.41 | 18.5 | viability, T/C [16]: 12.8%; viability, T/C [17]: 8.05%; viability, T/C [18]: 6.62%; viability, T/C [19]: 16.8%; viability, T/C [20]: 14.4%; viability, T/C [21]: 7.55%; viability, T/C [22]: 5.43%; viability, T/C [23]: 20.8%; viability, T/C [24]: 17.8%; viability, T/C [25]: 6.67%; viability, T/C [26]: 8.37%; viability, T/C [27]: 31.6%; viability, T/C [28]: 29.6%; viability, T/C [29]: 4.3%; viability, T/C [30]: 0.23%
O=C(c1cc(Cc2n[nH]c(=O)c3ccccc23)ccc1F)N1CCN(C(=O)C2CC2)CC1 + C=CC(=O)N1CCN(c2nc(=O)n(-c3c(C)ccnc3C(C)C)c3nc(-c4c(O)cccc4F)c(F)cc23)C(C)C1 | < 31.6 | < 31.6 | < 31.6 | < 31.6 | < 31.6 | 29.5 | 24.6 | 28.2 | 33.6 | 34.2 | 34.4 | 35.2 | 34.2 | 39.3 | 43.3 | 21.9 | 19.5 | 21.1 | 23.8 | 24.4 | viability, T/C [16]: 19.8%; viability, T/C [17]: 24.2%; viability, T/C [18]: 25.2%; viability, T/C [19]: 33.8%; viability, T/C [20]: 29.3%; viability, T/C [21]: 24.7%; viability, T/C [22]: 26.7%; viability, T/C [23]: 36%; viability, T/C [24]: 30.9%; viability, T/C [25]: 34.6%; viability, T/C [26]: 35.3%; viability, T/C [27]: 42.1%; viability, T/C [28]: 43.2%; viability, T/C [29]: 45%; viability, T/C [30]: 48.2%
